Laboratory results taken from US20230192700A1, “PYRAZOLOPYRAZINES ACTING ON CANCERS VIA INHIBITION OF CDK12” (Bayer Aktiengesellschaft, priority 2020, published 2023).

Tests used:
CDK12 = target: T1, CDK12 (Homo sapiens, UniProt Q9NYV4); test: CDK12 nuclear protein level: immunofluorescence/high content analysis in CAL-120 cells; type: cell-based; conditions: for DC50: CAL-120 cells, 24 h, nuclear CDK12 staining intensity, median, read-out: CDK12 degradation IF DC50 - [mol/l] (median); for (IC50 CDK12 high ATP) to (Degradation DC50 CDK12) ratio: ratio of IC50 CDK12 hATP (2 mM ATP) to DC50 CDK12 (IF, CAL-120)
T1 construct: endogenous in cells; host or cells: CAL-120 human breast cancer cells (DSMZ ACC 459)
Outline: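 Cells were exposed to compounds in dose-response for 24 h at 37 °C, then PFA-fixed, immunostained for CDK12 and counterstained with Hoechst before confocal imaging. Nuclear CDK12 intensity was normalized to DMSO and control. DC50 is the concentration giving 50% reduction of nuclear staining.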

CDK2/CyclinE = target: T2, CDK2/CyclinE (Homo sapiens, UniProt P24941); test: CDK2/CycE kinase assay (TR-FRET); type: biochemical; conditions: 2 mM ATP (high ATP); median; read-out: CDK2/CyclinE, 2 mM ATP (high ATP) IC50 - [mol/l] (median)
T2 construct: GST; purchased ProQinase GmbH (Freiburg, Germany); host or cells: insect cells (Sf9)
Outline: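 GST-tagged human CDK2/CycE (Sf9-expressed, ~10 ng/mL) was preincubated 15 min with compound, then run 25 min at 22 °C with 2 mM ATP and 0.75 μM biotinylated peptide, pH 8.0. Phospho-substrate was detected by TR-FRET (anti-RB pSer807/811, Eu-anti-mouse, streptavidin-XL665), 665/620 nm ratio, normalised to no-inhibitor and no-enzyme controls.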

T1 sequence (Q9NYV4 whole entry): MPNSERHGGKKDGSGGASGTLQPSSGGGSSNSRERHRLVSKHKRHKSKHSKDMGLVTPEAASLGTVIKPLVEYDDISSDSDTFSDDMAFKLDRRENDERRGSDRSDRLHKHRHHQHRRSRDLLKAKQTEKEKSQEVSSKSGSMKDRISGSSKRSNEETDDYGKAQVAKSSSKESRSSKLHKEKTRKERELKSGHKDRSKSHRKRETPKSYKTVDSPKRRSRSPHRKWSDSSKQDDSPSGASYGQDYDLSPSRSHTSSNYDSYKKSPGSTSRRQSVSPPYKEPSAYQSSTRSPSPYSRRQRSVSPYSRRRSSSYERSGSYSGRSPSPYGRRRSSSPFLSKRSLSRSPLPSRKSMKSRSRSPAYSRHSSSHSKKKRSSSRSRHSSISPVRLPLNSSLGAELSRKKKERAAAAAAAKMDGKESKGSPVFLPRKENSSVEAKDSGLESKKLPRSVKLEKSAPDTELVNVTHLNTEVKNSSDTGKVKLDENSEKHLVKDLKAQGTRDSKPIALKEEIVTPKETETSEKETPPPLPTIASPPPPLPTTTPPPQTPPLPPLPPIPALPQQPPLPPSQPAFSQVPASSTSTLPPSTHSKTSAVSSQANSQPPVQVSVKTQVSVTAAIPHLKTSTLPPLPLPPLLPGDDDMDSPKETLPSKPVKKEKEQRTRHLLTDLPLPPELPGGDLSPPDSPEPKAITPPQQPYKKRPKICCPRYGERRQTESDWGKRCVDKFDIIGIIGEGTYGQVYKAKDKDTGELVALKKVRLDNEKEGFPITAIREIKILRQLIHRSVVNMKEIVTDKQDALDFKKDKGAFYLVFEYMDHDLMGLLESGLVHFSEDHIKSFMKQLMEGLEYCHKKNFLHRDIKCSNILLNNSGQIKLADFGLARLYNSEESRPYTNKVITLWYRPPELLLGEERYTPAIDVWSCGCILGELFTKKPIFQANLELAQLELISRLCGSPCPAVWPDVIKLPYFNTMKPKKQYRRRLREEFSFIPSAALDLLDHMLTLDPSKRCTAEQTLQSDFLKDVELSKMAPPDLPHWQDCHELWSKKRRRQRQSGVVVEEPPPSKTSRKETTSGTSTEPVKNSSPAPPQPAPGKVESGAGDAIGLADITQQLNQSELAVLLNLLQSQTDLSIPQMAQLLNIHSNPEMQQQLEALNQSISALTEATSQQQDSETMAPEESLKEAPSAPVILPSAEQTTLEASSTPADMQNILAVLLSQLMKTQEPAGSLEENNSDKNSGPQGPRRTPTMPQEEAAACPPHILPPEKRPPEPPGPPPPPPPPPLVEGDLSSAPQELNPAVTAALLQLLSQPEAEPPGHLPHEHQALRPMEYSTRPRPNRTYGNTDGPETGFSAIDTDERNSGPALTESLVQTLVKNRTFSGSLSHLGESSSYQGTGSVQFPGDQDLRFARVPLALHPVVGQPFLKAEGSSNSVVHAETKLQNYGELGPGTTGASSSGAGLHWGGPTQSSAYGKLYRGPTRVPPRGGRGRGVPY
T1 sequence (O75909 whole entry partner): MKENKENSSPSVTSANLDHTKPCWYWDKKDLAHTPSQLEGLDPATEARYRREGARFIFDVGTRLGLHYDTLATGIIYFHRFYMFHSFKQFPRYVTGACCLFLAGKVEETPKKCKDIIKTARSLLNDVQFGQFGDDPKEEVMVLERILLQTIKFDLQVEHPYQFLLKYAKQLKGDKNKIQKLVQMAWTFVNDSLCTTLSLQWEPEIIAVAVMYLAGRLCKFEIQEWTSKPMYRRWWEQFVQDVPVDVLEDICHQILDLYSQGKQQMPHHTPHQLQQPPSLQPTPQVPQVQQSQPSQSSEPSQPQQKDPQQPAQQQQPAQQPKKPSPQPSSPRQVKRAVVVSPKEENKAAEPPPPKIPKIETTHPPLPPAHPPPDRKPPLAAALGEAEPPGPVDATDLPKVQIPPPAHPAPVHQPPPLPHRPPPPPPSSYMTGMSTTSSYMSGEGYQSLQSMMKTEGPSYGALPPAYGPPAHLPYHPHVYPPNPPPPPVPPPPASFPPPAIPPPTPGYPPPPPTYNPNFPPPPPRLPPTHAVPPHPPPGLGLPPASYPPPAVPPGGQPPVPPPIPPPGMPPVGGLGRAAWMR

## CC1CC(n2nc(NCc3nc4ccccc4[nH]3)c3ncc(C4CC4)nc32)CCN1C (racemic) [Example 41, (±)-cis/trans-N-[(1H-benzimidazol-2-yl)methyl]-6-cyclopropyl-1-(1,2-dimethylpiperidin-4-yl)-1H-pyrazolo[3,4-b]pyrazin-3-amine]
CDK12
  DC50: 0.00405 µM
CDK2/CyclinE
  IC50: > 20 µM

## Cn1nc(NCc2nc3ccccc3[nH]2)c2ncc(C3CC3)nc21 [Example 15, N-[(1H-benzimidazol-2-yl)methyl]-6-cyclopropyl-1-methyl-1H-pyrazolo[3,4-b]pyrazin-3-amine]
CDK12
  DC50: 0.155 µM
  (IC50 CDK12 high ATP) to (Degradation DC50 CDK12) ratio: >129
CDK2/CyclinE
  IC50: > 20 µM

## O[C@H]1C[C@@H](Cn2nc(NCc3nc4ccccc4[nH]3)c3ncc(C4CC4)nc32)C1 [Example 71, cis-3-[(3-{[(1H-benzimidazol-2-yl)methyl]amino}-6-cyclopropyl-1H-pyrazolo[3,4-b]pyrazin-1-yl)methyl]cyclobutan-1-ol]
CDK12
  DC50: 0.0277 µM
CDK2/CyclinE
  IC50: > 20 µM

## OC1(Cn2nc(NCc3nc4ccccc4[nH]3)c3ncc(C4CC4)nc32)CCCC1 [Example 73, 1-[(3-{[(1H-benzimidazol-2-yl)methyl]amino}-6-cyclopropyl-1H-pyrazolo[3,4-b]pyrazin-1-yl)methyl]cyclopentan-1-ol]
CDK12
  DC50: 0.112 µM
  (IC50 CDK12 high ATP) to (Degradation DC50 CDK12) ratio: >90
CDK2/CyclinE
  IC50: > 20 µM

## c1ccc2[nH]c(CNc3nn(C4CCCC4)c4nc(C5CC5)cnc34)nc2c1 [Example 39, N-[(1H-benzimidazol-2-yl)methyl]-1-cyclopentyl-6-cyclopropyl-1H-pyrazolo[3,4-b]pyrazin-3-amine]
CDK12
  DC50: 0.0382 µM
  (IC50 CDK12 high ATP) to (Degradation DC50 CDK12) ratio: >534
CDK2/CyclinE
  IC50: > 20 µM

## CN1CCC(n2nc(NCc3nc4c(Br)cccc4[nH]3)c3ncc(C4CC4)nc32)CC1 [Example 20, N-[(4-bromo-1H-benzimidazol-2-yl)methyl]-6-cyclopropyl-1-(1-methylpiperidin-4-yl)-1H-pyrazolo[3,4-b]pyrazin-3-amine]
CDK12
  DC50: 0.0222 µM
  (IC50 CDK12 high ATP) to (Degradation DC50 CDK12) ratio: >1050
CDK2/CyclinE
  IC50: > 20 µM

## Fc1cccc2[nH]c(CNc3nn(C4CCOCC4)c4nc(C5CC5)cnc34)nc12 [Example 23, 6-cyclopropyl-N-[(4-fluoro-1H-benzimidazol-2-yl)methyl]-1-(oxan-4-yl)-1H-pyrazolo[3,4-b]pyrazin-3-amine]
CDK12
  DC50: 0.0317 µM
  (IC50 CDK12 high ATP) to (Degradation DC50 CDK12) ratio: 388
CDK2/CyclinE
  IC50: 16.4 µM

## COCCC(C)n1nc(NCc2nc3ccccc3[nH]2)c2ncc(C3CC3)nc21 (single isomer, unassigned; (+)) [Example 59, (+)-N-[(1H-benzimidazol-2-yl)methyl]-6-cyclopropyl-1-[4-methoxybutan-2-yl]-1H-pyrazolo[3,4-b]pyrazin-3-amine]
CDK12
  DC50: 0.0324 µM
  (IC50 CDK12 high ATP) to (Degradation DC50 CDK12) ratio: >618
CDK2/CyclinE
  IC50: > 20 µM

## CN1CCC(n2nc(NCc3nc4cc(F)c(F)cc4[nH]3)c3ncc(C4CC4)nc32)CC1 [Example 30, 6-cyclopropyl-N-[(5,6-difluoro-1H-benzimidazol-2-yl)methyl]-1-(1-methylpiperidin-4-yl)-1H-pyrazolo[3,4-b]pyrazin-3-amine]
CDK12
  DC50: 0.0171 µM
  (IC50 CDK12 high ATP) to (Degradation DC50 CDK12) ratio: >1376
CDK2/CyclinE
  IC50: > 20 µM

## CN1CCCC(n2nc(NCc3nc4ccccc4[nH]3)c3ncc(C4CC4)nc32)CC1 (racemic) [Example 34, (±)-N-[(1H-benzimidazol-2-yl)methyl]-6-cyclopropyl-1-(1-methylazepan-4-yl)-1H-pyrazolo[3,4-b]pyrazin-3-amine]
CDK12
  DC50: 0.0142 µM
CDK2/CyclinE
  IC50: > 20 µM

## OCC1(Cn2nc(NCc3nc4ccccc4[nH]3)c3ncc(C4CC4)nc32)CCC1 [Example 74, {1-[(3-{[(1H-benzimidazol-2-yl)methyl]amino}-6-cyclopropyl-1H-pyrazolo[3,4-b]pyrazin-1-yl)methyl]cyclobutyl}methanol]
CDK12
  DC50: 0.0151 µM
  (IC50 CDK12 high ATP) to (Degradation DC50 CDK12) ratio: >660
CDK2/CyclinE
  IC50: > 20 µM

## c1ccc2[nH]c(CNc3nn(C4CCOC4)c4nc(C5CC5)cnc34)nc2c1 (single isomer, unassigned) [Example 17, (+) or (−)-N-[(1H-benzimidazol-2-yl)methyl]-6-cyclopropyl-1-(oxolan-3-yl)-1H-pyrazolo[3,4-b]pyrazin-3-amine]
CDK12
  DC50: 0.0248 µM
  (IC50 CDK12 high ATP) to (Degradation DC50 CDK12) ratio: >807
CDK2/CyclinE
  IC50: > 20 µM

## CC1CC(n2nc(NCc3nc4ccccc4[nH]3)c3ncc(C4CC4)nc32)CCO1 (racemic) [Example 44, (±)-cis/trans-N-[(1H-benzimidazol-2-yl)methyl]-6-cyclopropyl-1-(2-methyloxan-4-yl)-1H-pyrazolo[3,4-b]pyrazin-3-amine]
CDK12
  DC50: 0.0349 µM
CDK2/CyclinE
  IC50: > 20 µM

## Cc1cccc2[nH]c(CNc3nn(C4CCN(C)CC4)c4nc(C5CC5)cnc34)nc12 [Example 8, 6-cyclopropyl-N-[(4-methyl-1H-benzimidazol-2-yl)methyl]-1-(1-methylpiperidin-4-yl)-1H-pyrazolo[3,4-b]pyrazin-3-amine]
CDK12
  DC50: 0.00853 µM
  (IC50 CDK12 high ATP) to (Degradation DC50 CDK12) ratio: >2344
CDK2/CyclinE
  IC50: > 20 µM

## O[C@H]1CC[C@@H](n2nc(NCc3nc4ccccc4[nH]3)c3ncc(C4CC4)nc32)CC1 [Example 51, cis-4-(3-{[(1H-benzimidazol-2-yl)methyl]amino}-6-cyclopropyl-1H-pyrazolo[3,4-b]pyrazin-1-yl)cyclohexan-1-ol]
CDK12
  DC50: 0.0107 µM
CDK2/CyclinE
  IC50: > 20 µM

## c1ccc2[nH]c(CNc3nn(C4CCNCC4)c4nc(C5CC5)cnc34)nc2c1 [Example 12, N-[(1H-benzimidazol-2-yl)methyl]-6-cyclopropyl-1-(piperidin-4-yl)-1H-pyrazolo[3,4-b]pyrazin-3-amine]
CDK12
  DC50: 0.00853 µM
  (IC50 CDK12 high ATP) to (Degradation DC50 CDK12) ratio: >2344
CDK2/CyclinE
  IC50: > 20 µM

## CN1CCC(n2nc(NCc3nc4c(F)c(F)ccc4[nH]3)c3ncc(C4CC4)nc32)CC1 [Example 9, 6-cyclopropyl-N-[(4,5-difluoro-1H-benzimidazol-2-yl)methyl]-1-(1-methylpiperidin-4-yl)-1H-pyrazolo[3,4-b]pyrazin-3-amine]
CDK12
  DC50: 0.00807 µM
  (IC50 CDK12 high ATP) to (Degradation DC50 CDK12) ratio: >2478
CDK2/CyclinE
  IC50: > 20 µM

## CN1CCC(n2nc(NCc3nc4ccccc4[nH]3)c3ncc(C4CC4)nc32)CC1 [Example 1, N-[(1H-benzimidazol-2-yl)methyl]-6-cyclopropyl-1-(1-methylpiperidin-4-yl)-1H-pyrazolo[3,4-b]pyrazin-3-amine]
CDK12
  DC50: 0.0042 µM
  (IC50 CDK12 high ATP) to (Degradation DC50 CDK12) ratio: >2380
CDK2/CyclinE
  IC50: > 20 µM

## c1ccc2[nH]c(CNc3nn(C4CCOCC4)c4nc(C5CC5)cnc34)nc2c1 [Example 16, N-[(1H-benzimidazol-2-yl)methyl]-6-cyclopropyl-1-(oxan-4-yl)-1H-pyrazolo[3,4-b]pyrazin-3-amine]
CDK12
  DC50: 0.084 µM
  (IC50 CDK12 high ATP) to (Degradation DC50 CDK12) ratio: >238
CDK2/CyclinE
  IC50: > 20 µM

## c1ccc2[nH]c(CNc3nn(C4CCC4)c4nc(C5CC5)cnc34)nc2c1 [Example 49, N-[(1H-benzimidazol-2-yl)methyl]-1-cyclobutyl-6-cyclopropyl-1H-pyrazolo[3,4-b]pyrazin-3-amine]
CDK12
  DC50: 0.0292 µM
  (IC50 CDK12 high ATP) to (Degradation DC50 CDK12) ratio: >685
CDK2/CyclinE
  IC50: > 20 µM

## CN(C)CCn1nc(NCc2nc3ccccc3[nH]2)c2ncc(C3CC3)nc21 [Example 68, N-[(1H-benzimidazol-2-yl)methyl]-6-cyclopropyl-1-[2-(dimethylamino)ethyl]-1H-pyrazolo[3,4-b]pyrazin-3-amine]
CDK12
  DC50: 0.0291 µM
  (IC50 CDK12 high ATP) to (Degradation DC50 CDK12) ratio: >687
CDK2/CyclinE
  IC50: > 20 µM

## Cc1c(F)ccc2[nH]c(CNc3nn(C4CCN(C)CC4)c4nc(C5CC5)cnc34)nc12 [Example 26, 6-cyclopropyl-N-[(5-fluoro-4-methyl-1H-benzimidazol-2-yl)methyl]-1-(1-methylpiperidin-4-yl)-1H-pyrazolo[3,4-b]pyrazin-3-amine]
CDK12
  DC50: 0.016 µM
  (IC50 CDK12 high ATP) to (Degradation DC50 CDK12) ratio: >509
CDK2/CyclinE
  IC50: > 20 µM

## COCCC(C)n1nc(NCc2nc3ccccc3[nH]2)c2ncc(C3CC3)nc21 (racemic) [Example 57, (±)-N-[(1H-benzimidazol-2-yl)methyl]-6-cyclopropyl-1-(4-methoxybutan-2-yl)-1H-pyrazolo[3,4-b]pyrazin-3-amine]
CDK12
  DC50: 0.17 µM
  (IC50 CDK12 high ATP) to (Degradation DC50 CDK12) ratio: >118
CDK2/CyclinE
  IC50: > 20 µM
